The source of these data is patent US20220296595A1, “CDK INHIBITORS” (QILU REGOR THERAPEUTICS INC., priority 2019, published 2022).

The structures appear in SMILES notation. pIC50: −log10 of the molar value. Where two headings read alike, the source gives them in different places.

One test has as its target T1, CDK4/CyclinD1 (Homo sapiens, UniProt P11802).
T1 construct: purchased Thermofisher PR8064A
As to the kind of experiment: Assay for inhibition of CDK4/CyclinD1 (Caliper microfluidic kinase assay). It counts as biochemical. As for the experimental part: The CDK4 enzyme assay for IC50 determination was performed as follows. Microfluidic kinase detection technology (Caliper) was used to monitor the phosphorylation of peptide substrate by CDK4/CyclinD1. The total reaction volume was 15 μL containing buffer A (100 mM HEPES (pH 7.5), 0.1% BSA, 0.01% Triton X-100, 1 mM DTT, 10 mM MgCl2, 10 μM Sodium Orthovanadate, 10 μM Beta-Glycerophosphate), 200 μM ATP, 1 nM CDK4/CyclinD1 (Thermofisher, PR8064A), 1 μM FL-34 (5-FAM-[…]), and the test compound at appropriate dilutions in DMSO. All components were added to the 384-well plate (Corning, 4514), and incubated at Room Temperature for 3 hours. The reaction was terminated by addition of 15 μL Stop Buffer (180 mM HEPES (pH 7.5), 20 mM EDTA, Coating-3 reagent (PerkinElmer, 760050)). The plate was then loaded on Caliper EZ Reader (EZ Reader II, PerkinElmer, HD-4HYSG2772), and the reaction mixtures including substrate and product were sipped into the microfluidic chip for separation and detection. The IC50 values of the test compound were determined by fitting the inhibition curves by 4 parameter sigmoidal dose-response model using the Xlfit5/GraphPad Prism 5 software.

Another test concerns T47D breast cancer cells. As to the kind of experiment: Anti-proliferation assay in T47D cell (Cyquant, day 6). It counts as cell-based, human. Conditions: Homo sapiens, T47D, anti-proliferation, T47D cells; read-out: T47D IC50. From the text: T47D is a human breast cancer cell line commonly used in biomedical research involving the hormonal expression of cancer cells. T47D cells are distinct from other human breast cancer cells in that their progesterone receptors (PR) are not regulated by estradiol, a hormone that is abundant within the cells themselves. T47D cells have been employed in studies of the effects of progesterone on breast cancer and the corresponding transcriptional regulation caused by introduced drugs. The cells have been noted to be extremely resistant to estrogens and antiestrogens.
T47D breast cancer cells from American Type Culture Collection (ATCC, HTB-133) were plated at 3000 cells/well in 96-well plates, and were incubated in RPMI 1640 medium (Gibco, 31800105) with 10% Fetal Bovine Serum (FBS, Biowest, FB-1058) at 37° C., 5% CO2. After overnight incubation, baseline values were measured of the samples from one plate using Cyquant reagent (Invitrogen, C35011) following manufacturer's recommendations. Cells were incubated with the detection reagent for 1 hour at 37° C., and then the fluorescence was measured with excitation at 485 nm and emission at 535 nm using Spectra Max M5 (Molecular Devices, HD-4HYSG3196). Other plates were dosed with compounds at a ten-point dose concentration from 10 μM to 0.51 nM in a 3-fold dilution scheme. On day 6 after compound addition, Cyquant reagent was added and the fluorescence was measured using Spectra Max M5. The IC50 values of the test compound's anti-proliferation activity were determined from the baseline subtracted viability readout curve using Xlfit5/GraphPad Prism 5 software.

In another test the target is T2, CDK2/CyclinE1 (Homo sapiens, UniProt P24941).
T2 construct: purchased SignalChem C29-18G
The experiment in a line: Assay for inhibition of CDK2/CyclinE1 (Caliper microfluidic kinase assay). Type of test: biochemical. Conditions: read-out: CDK2 IC50. As for the experimental part: The CDK2 enzyme assay for IC50 determination was performed as follows. Microfluidic kinase detection technology (Caliper) was used to monitor the phosphorylation of peptide substrate by CDK2/CyclinE1. The total reaction volume was 15 μL containing buffer A (100 mM HEPES (pH 7.5), 0.1% BSA, 0.01% Triton X-100, 1 mM DTT, 10 mM MgCl2, 10 μM Sodium Orthovanadate, 10 μM Beta-Glycerophosphate), 100 μM ATP, 5 nM CDK2/CyclinE1 (SignalChem, C29-18G), 5 μM FL-18 (5-FAM-QSPKKG-NH2), and the test compound at appropriate dilutions in DMSO. All components were added to the 384-well plate (Corning, 4514), and incubate at Room Temperature for 3 hours. The reaction was terminated by addition of 15 μL Stop Buffer (180 mM HEPES (pH 7.5), 20 mM EDTA, Coating-3 reagent (PerkinElmer, 760050)). The plate was loaded on Caliper EZ Reader (EZ Reader II, PerkinElmer, HD-4HYSG2772), and the reaction mixtures including substrate and product were sipped into the microfluidic chip for separation and detection. The IC50 values of the test compound were determined by fitting the inhibition curves by 4 parameter sigmoidal dose-response model using the Xlfit5/GraphPad Prism 5 software.

T1 sequence (P11802 whole entry): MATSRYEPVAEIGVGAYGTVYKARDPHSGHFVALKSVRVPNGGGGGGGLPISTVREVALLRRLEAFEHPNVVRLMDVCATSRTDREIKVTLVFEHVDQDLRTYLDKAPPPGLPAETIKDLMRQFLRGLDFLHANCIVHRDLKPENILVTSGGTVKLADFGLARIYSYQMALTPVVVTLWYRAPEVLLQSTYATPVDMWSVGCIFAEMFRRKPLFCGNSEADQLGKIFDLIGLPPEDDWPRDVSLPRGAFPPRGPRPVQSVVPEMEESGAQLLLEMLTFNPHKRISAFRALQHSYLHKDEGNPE
T1 sequence (P24385 whole entry partner): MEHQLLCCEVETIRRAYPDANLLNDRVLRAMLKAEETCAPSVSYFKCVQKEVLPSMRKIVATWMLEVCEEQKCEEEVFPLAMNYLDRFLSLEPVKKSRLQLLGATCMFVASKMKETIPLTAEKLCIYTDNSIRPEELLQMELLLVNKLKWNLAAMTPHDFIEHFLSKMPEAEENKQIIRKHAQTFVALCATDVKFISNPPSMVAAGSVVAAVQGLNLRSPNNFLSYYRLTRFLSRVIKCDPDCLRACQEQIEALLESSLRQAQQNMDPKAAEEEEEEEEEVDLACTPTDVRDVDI

A word on the pIC50: it is the IC50 on a negative log10 scale, so that one unit is a factor of ten. In the case of `CC(C)n1cnc2c(F)nc(-c3ccnc(Nc4ccc(N5CCN(C6CC6)CC5)cn4)n3)cc21` [compound 267], the pIC50 at CDK4/CyclinD1 (CDK4/CyclinD1, 200 μM ATP) was over 8.00; in the test with T47D breast cancer cells, over 7.00; at CDK2/CyclinE1 (CDK2/CyclinE1, 100 μM ATP), 6.00 to 7.00.

`CC(C)n1cnc2c(F)nc(-c3ccnc(Nc4ccc(N5CCC(N(C)C)C5=O)cc4)n3)cc21` (stereo not drawn) [compound 268]: the pIC50 on CDK4/CyclinD1 (CDK4/CyclinD1, 200 μM ATP) was over 8.00; with T47D breast cancer cells it was over 7.00; at CDK2/CyclinE1 (CDK2/CyclinE1, 100 μM ATP) it was 7.00 to 8.00.

`Cc1nc2c(F)nc(-c3ccnc(Nc4ccc(N5CCN(C(C)C)CC5)cn4)n3)cc2n1C(C)C` [compound 269]: the pIC50 on CDK4/CyclinD1 (CDK4/CyclinD1, 200 μM ATP) is over 8.00; with T47D breast cancer cells, over 7.00; on CDK2/CyclinE1 (CDK2/CyclinE1, 100 μM ATP), under 6.00.

As to `CNC1CCCN(c2ccc(Nc3nccc(-c4cc5c(ncn5C(C)C)c(F)n4)n3)nc2)C1=O` (stereo not drawn) [compound 284], the pIC50 was over 8.00 against CDK4/CyclinD1 (CDK4/CyclinD1, 200 μM ATP); over 7.00 in the test on T47D breast cancer cells; under 6.00 on CDK2/CyclinE1 (CDK2/CyclinE1, 100 μM ATP).

Turning to `CNC1CCCN(c2ccc(Nc3nccc(-c4cc5c(ncn5C(C)C)c(F)n4)n3)cc2)C1=O` (stereo not drawn) [compound 294], the pIC50 is over 8.00 against CDK4/CyclinD1 (CDK4/CyclinD1, 200 μM ATP); over 7.00 with T47D breast cancer cells; 7.00 to 8.00 on CDK2/CyclinE1 (CDK2/CyclinE1, 100 μM ATP).

As for `Cc1nc2c(F)nc(-c3ccnc(Nc4ccc(N5CCC(N(C)C)CC5=O)cc4)n3)cc2n1C(C)C` (stereo not drawn) [compound 295], the pIC50 against CDK4/CyclinD1 (CDK4/CyclinD1, 200 μM ATP) was over 8.00; in the test on T47D breast cancer cells, over 7.00; on CDK2/CyclinE1 (CDK2/CyclinE1, 100 μM ATP), over 8.00.

As for `CNC1CCCN(c2ccc(Nc3ncc(C)c(-c4cc5c(ncn5C(C)C)c(F)n4)n3)cc2)C1=O` (stereo not drawn) [compound 298], the pIC50 against CDK4/CyclinD1 (CDK4/CyclinD1, 200 μM ATP) was over 8.00; with T47D breast cancer cells, over 7.00; at CDK2/CyclinE1 (CDK2/CyclinE1, 100 μM ATP), 6.00 to 7.00.

For the compound `CNC1CCCN(c2ccc(Nc3ncc(Cl)c(-c4cc5c(ncn5C(C)C)c(F)n4)n3)cc2)C1=O` (stereo not drawn) [compound 299], the pIC50 at CDK4/CyclinD1 (CDK4/CyclinD1, 200 μM ATP) is over 8.00; in the test with T47D breast cancer cells it was over 7.00; on CDK2/CyclinE1 (CDK2/CyclinE1, 100 μM ATP), 6.00 to 7.00.

On to `CC(C)n1cnc2c(F)nc(-c3nc(Nc4ccc(N5CCCC(N(C)C)C5=O)cn4)ncc3F)cc21` (stereo not drawn) [compound 300], for which the pIC50 against CDK4/CyclinD1 (CDK4/CyclinD1, 200 μM ATP) is over 8.00; in the test on T47D breast cancer cells it was over 7.00; on CDK2/CyclinE1 (CDK2/CyclinE1, 100 μM ATP), under 6.00.

Take `CC(C)n1cnc2c(F)nc(-c3ccnc(Nc4ccc(N5CCCC(N(C)C)C5=O)cc4)n3)cc21` (stereo not drawn) [compound 304]: the pIC50 on CDK4/CyclinD1 (CDK4/CyclinD1, 200 μM ATP) was over 8.00; in the test with T47D breast cancer cells it was over 7.00; on CDK2/CyclinE1 (CDK2/CyclinE1, 100 μM ATP), 7.00 to 8.00.

On to `CC(C)n1cnc2c(F)nc(-c3ccnc(Nc4ccc(N5CCCC(N)C5=O)cc4F)n3)cc21` (stereo not drawn) [compound 306], for which the pIC50 on CDK4/CyclinD1 (CDK4/CyclinD1, 200 μM ATP) was over 8.00; in the test with T47D breast cancer cells it was over 7.00; on CDK2/CyclinE1 (CDK2/CyclinE1, 100 μM ATP), 7.00 to 8.00.

Regarding `CC(C)n1cnc2c(F)nc(-c3ccnc(Nc4ccc(N5CCN(C(C)(C)C)CC5)cn4)n3)cc21` [compound 308], the pIC50 against CDK4/CyclinD1 (CDK4/CyclinD1, 200 μM ATP) was over 8.00; with T47D breast cancer cells it was over 7.00; at CDK2/CyclinE1 (CDK2/CyclinE1, 100 μM ATP), 6.00 to 7.00.

For the compound `CC(C)n1cnc2c(F)nc(-c3ccnc(Nc4ccc(N5CCN(CCF)CC5)cn4)n3)cc21` [compound 309], the pIC50 was over 8.00 at CDK4/CyclinD1 (CDK4/CyclinD1, 200 μM ATP); over 7.00 in the test with T47D breast cancer cells; 6.00 to 7.00 at CDK2/CyclinE1 (CDK2/CyclinE1, 100 μM ATP).

In the case of `COc1nc(-c2ccnc(Nc3ccc(N4CCCC(N(C)C)C4=O)cc3)n2)cc2c1ncn2C(C)C` (stereo not drawn) [compound 311], the negative logarithm of the IC50 (pIC50) is over 8.00 on CDK4/CyclinD1 (CDK4/CyclinD1), over 7.00 in the test on T47D breast cancer cells and 6.00 to 7.00 at CDK2/CyclinE1 (CDK2/CyclinE1).
